One sequence from US20080199485A1 (priority 2007, published 2008) can be followed below.

Assay [1] concerns EL-4 cells pulsed with gp33 peptide. It is filed as cell-based, mouse.
Assay [2] deals with TCR-transgenic gp33-specific T cells. It counts as cell-based, mouse.

“Also recorded” adds a separate entry of the source.

In the case of KAVYNFATM [gp33], the CTL response result in assay [1] is listed as “strongest CTL response; also recorded: weaker CTL responses”. In assay [2], the IFN-γ production result is “transiently produced at an early stage”, the IFN-γ secretion entry is “higher amounts of IFN-gamma” and the IL-10 production entry was “high amounts of IL-10 with an earlier onset”.
